According to EP0168309A1, “Isoxazoloquinolinone derivatives, process and intermediates for their preparation, use as medicaments and compositions containing them” (ROUSSEL-UCLAF, priority 1984, dated 1986):

What was measured:
[1] = biological target: récepteurs des benzodiazépines; test: Affinity for benzodiazepine receptors (3H diazepam binding, rat cortex membranes); set-up: species or system rats; conditions: concentration inhibiting 50 % of specific binding of 3H diazepam (10^-9M), 30 minutes at 0°C, read-out: C. I. 50 (the source's name)
Method: La technique est inspirée de celle de Möhler et Okada : Science, Vol 198 p.849-851 (1977).
On homogénéise au vingtième (poids/volume) dans le sucrose 0,32 M, les cortex prélevés sur des cerveaux de rats mâles pesant 150 g en moyenne. Après centrifugation de l'homogénat à 1000 g pendant 10 minutes à 0°C, le surnageant est centrifugé à 30 000 g pendant 20 minutes à 4°C. Le culot est mis en suspension dans 20 volumes de tampon Tris HCl 50mM pH 7,4 et centrigué à 30 000 g pendant 20 minutes à 4°C. Le nouveau culot obtenu est mis en suspension dans 50 ml de tampon Krebs Tris HCl pH 7,4.
On fait ensuite incuber pendant 30 minutes à 0°C, 2 ml de suspension en présence de 3H diazepam à la concentration 10^-9M : • i) seule, • ii) avec des concentrations croissantes du produit à tester ou, • iii) pour déterminer la fixation non spécifique, avec du diazepam non radioactif à la concentration 10^-6M.
Les suspensions incubées sont filtrées sur Whatman GF/C et les filtres sont lavés par deux fois 5 ml de tampon Krebs Tris HCl pH 7,4 à 0°C.
La radioactivité des filtres est mesurées par scintillation liquide.
L'activité du produit est exprimée en C. I. 50 : concentration inhibant 50 % de la liaison spécifique de ^3H diazepam.

[2] = system: souris; test: Acute toxicity, oral administration in mice (DL0); type: in vivo; conditions: maximal dose causing no mortality in 8 days, mouse
Excerpt: On a évalué les doses létales DLO des différents composés testés après administration par voie orale chez la souris.
On appelle DLO la dose maximale ne provoquant aucune mortalité en 8 jours.

[3] = system: taux sérique de corticostérone; test: Action on serum corticosterone level after noise stress; type: in vivo; conditions: Rattus norvegicus; dose reducing by 50% the increase of serum corticosterone; oral route, 1 hour before stress; rats; read-out: DE50 (the source's name)
Excerpt: Des lots de 5 rats sont constitués la veille de l'essai et placés dans un pièce au calme. Les composés sont administrés par voie orale le lendemain entre 8 et 9 heures du matin. Une heure après, le stress est appliqué : il consiste à changer les animaux de cage, à les placer dans une pièce où un poste de radio fonctionne bruyamment (90 décibels), puis 1/2 heure plus tard, à leur faire une piqûre intrapéritonéale sans injection. Dix minutes après celle-ci, les rats sont anesthésiés a l'halothane et des échantillons de sang sont prélevés par décapitation. Les taux de corticostérone sérique sont alors déterminés.
Les résultats sont exprimés en DE50, c'est-à-dire en dose de composé testé qui réduit de 50% l'augmentation du taux de corticostérone sérique chez les animaux traités par rapport aux animaux témoins.

| SMILES | IC50 [1] [nM] | DL0 [2] [mg/kg] | ED50 [3] [mg/kg] |
| --- | --- | --- | --- |
| O=c1c2cnc3ccccc3c2on1-c1ccccc1 [Exemple 1, 2-phényl isoxazolo (4,5-c) quinoléin-3 (2H) one] | 120 | ≥ 400 |  |
| COc1ccc2c(c1)ncc1c(=O)n(-c3ccccc3)oc12 [Exemple 3, 7-méthoxy 2-phénylisoxazolo (4,5-c) quinoléin-3-(2H)-one] |  | ≥ 200 |  |
| O=c1c2cnc3ccc(F)cc3c2on1-c1ccccc1 [Exemple 2, 8-fluoro 2-phénylisoxazolo (4,5-c) quinoléin-3-(2H)-one] | 400 | ≥ 400 | < 50 |
| O=c1c2cnc3ccc(C(F)(F)F)cc3c2on1-c1ccccc1 [Exemple 5, 8-trifluorométhyl 2-phényl isoxazolo (4,5-c) quinoléin-3-(2H)-one] |  | ≥ 200 |  |
| O=c1c2cnc3ccc(Cl)cc3c2on1-c1ccccc1 [Exemple 7, 8-chloro 2-phényl isoxazolo (4,5-c) quinoléin-3-(2H)-one] |  | ≥ 100 |  |
| COc1ccc2ncc3c(=O)n(-c4ccccc4)oc3c2c1 [Exemple 4, 8-méthoxy 2-phényl isoxazolo (4,5-c) quinoléin-3-(2H)-one] | 2460 | 200 | < 100 |
